Reference: patent US11325906B2, “Chemical compounds” (AstraZeneca AB, priority 2019, dated 2022)

How the values were obtained:
[1] = test system: BRCA2 (−/−) DLD1 cells; test: PARP proliferation assay (4 day compound dosing), BRCA2 (−/−) DLD1; assay type: cell-based; details: Homo sapiens, 96 h, BRCA2 −/− DLD-1 cells, read-out: BRCA2 −/− DLD-1 prolif 4 d IC50
[2] = test system: DLD1 cells; test: PARP proliferation assay (4 day compound dosing), WT DLD1; assay type: cell-based; details: Homo sapiens, 96 h, WT DLD-1 cells, read-out: WT DLD-1 prolif 4 d IC50

For `CCc1cc2ncc(CN3CCN(c4ccc(C(=O)NC)nc4C)CC3)cc2[nH]c1=O` [Example 31, 5-[4-[(7-ethyl-6-oxo-5H-1,5-naphthyridin-3-yl)methyl]piperazin-1-yl]-N,6-dimethyl-pyridine-2-carboxamide], the IC50 [1] was 4 nM and the IC50 [2] was > 30000 nM.
